Measured values published in the NIST ThermoML archive (doi:10.1016/j.jct.2013.04.017).

Experiment: mn = molality of the nth substance listed, in mol/kg
Conditions: 101 kPa, Liquid, fixed-path interferometer

O=C(O)CC(O)(CC(=O)O)C(=O)O [citric acid] + O
speed of sound [m/s]
Conditions | 288.15 K | 293.15 K | 298.15 K | 303.15 K | 308.15 K | 313.15 K | 318.15 K | 323.15 K
m1 = 0.1003 | 1469.9 | 1485.9 | 1499.4 | 1510.9 | 1521 | 1529.8 | 1537.2 | 1542.6
m1 = 0.2504 | 1477.4 | 1492.5 | 1505.5 | 1516.2 | 1525.8 | 1533.9 | 1540.5 | 1545.9
m1 = 0.5006 | 1490.5 | 1504 | 1516.1 | 1525.7 | 1533.9 | 1541.2 | 1546.1 | 1550.7
m1 = 0.9988 | 1515 | 1526.4 | 1535.8 | 1543.3 | 1549.4 | 1554.9 | 1558.2 | 1561.1
m1 = 1.502 | 1538 | 1547.1 | 1554.4 | 1560.8 | 1565.6 | 1569.5 | 1572 | 1573.3
m1 = 2.023 | 1560.3 | 1567.1 | 1572.5 | 1576.7 | 1579.8 | 1582.2 | 1583.7 | 1582.6
m1 = 2.502 | 1578.8 | 1584.1 | 1587.9 | 1590.5 | 1592.4 | 1593.7 | 1593.9 | 1592.9
m1 = 3.006 | 1595.4 | 1598.9 | 1603 | 1603 | 1603.6 | 1603.8 | 1599.9 | 1598.2
m1 = 3.505 | 1613.1 | 1615.3 | 1616.7 | 1615.6 | 1615.2 | 1614.2 | 1612.6 | 1609.7
m1 = 3.998 | 1626.2 | 1628.7 | 1629.1 | 1626.7 | 1622.6 | 1621 | 1618.9 | 1615.4
m1 = 4.506 | 1640.7 | 1636.7 | 1641 | 1637.8 | 1635.5 | 1632.7 | 1629.6 | 1625.3
m1 = 4.997 | 1654.7 | 1653.3 | 1651.3 | 1648.6 | 1640.1 | 1635.7 | 1632.1 | 1626.1
